Assay results taken from ChEMBL document CHEMBL5042472, “Design, Synthesis, and Biological Evaluation of a Novel Photocaged PI3K Inhibitor toward Precise Cancer Treatment” (J Med Chem, 2021).

Tests used:
BGC-823 = assay: Antiproliferative activity against human BGC-823 cells assessed as reduction in cell viability incubated in dark for 96 hrs by MTT assay; format: functional, cell-based; details: BGC-823, 96 h
[1] = Stability in rat plasma assessed as half life at 1 uM measured upto 120 min by LC-MS/MS analysis; format: ADME, cell-free
[2] = Stability in dog liver microsomes assessed as half life at 1 uM in presence of NADPH measured upto 120 min by LC-MS/MS analysis; format: ADME, Canis lupus familiaris, Microsome
MG-63 = assay: Antiproliferative activity against human MG-63 cells assessed as reduction in cell viability incubated in dark for 96 hrs by MTT assay; format: functional, cell-based; details: MG-63, 96 h
[3] = Stability in dog plasma assessed as half life at 1 uM measured upto 120 min by LC-MS/MS analysis; format: ADME, cell-free, Canis lupus familiaris
[4] = Retention time of the compound by HPLC analysis; format: physicochemical
HCT-116 = assay: Antiproliferative activity against human HCT-116 cells assessed as reduction in cell viability incubated in dark for 96 hrs by MTT assay; format: functional, cell-based; details: HCT-116, 96 h
[5] = Apparent permeability across basolateral to apical side in human Caco-2 cells at 10 uM incubated for 2 hrs by LC-MS/MS analysis; format: ADME, cell-based
AGS = assay: Antiproliferative activity against human AGS cells assessed as reduction in cell viability incubated in dark for 96 hrs by MTT assay; format: functional, cell-based
MGC-803 = assay: Antiproliferative activity against human MGC-803 cells assessed as reduction in cell viability incubated in dark for 96 hrs by MTT assay; format: functional, cell-based; details: MGC-803, 96 h
HGC-27 = assay: Antiproliferative activity against human HGC-27 cells assessed as reduction in cell viability incubated in dark for 96 hrs by MTT assay; format: functional, cell-based; details: HGC-27, 96 h
[6] = Stability in rat liver microsomes assessed as half life at 1 uM in presence of NADPH by LC-MS/MS analysis; format: ADME, Microsome
[7] = Plasma protein binding in rat at 1 uM by LC-MS/MS analysis; format: ADME, cell-free; details: read-out: PPB (converted)
[8] = Apparent permeability across apical to basolateral side in human Caco-2 cells at 10 uM incubated for 2 hrs by LC-MS/MS analysis; format: ADME, cell-based
[9] = Plasma protein binding in dog at 1 uM by LC-MS/MS analysis; format: ADME, cell-free, Canis lupus familiaris; details: read-out: PPB (converted)

IC50 (BGC-823): 18.6 nM | half-life at 1 µM [1]: > 2 h | half-life at 1 µM [2]: > 2 h | half-life at 1 µM [3]: > 2 h | Retention_time [4]: 5.2 min | IC50 (HCT-116): 23.4 nM | Papp B→A at 2 h, 10 µM [5]: 26.5 ×10⁻⁶ cm/s | IC50 (AGS): 6.3 nM | IC50 (MGC-803): 14.8 nM | half-life at 1 µM [6]: 1.73 h | fraction unbound at 1 µM [7]: 0.017 | Papp A→B at 2 h, 10 µM [8]: 21.2 ×10⁻⁶ cm/s | fraction unbound at 1 µM [9]: 0.017
Structure (SMILES): COc1ncc(-c2cc(OC3CCOCC3)c3ncnc(C)c3c2)cc1NS(=O)(=O)c1ccc(F)cc1F
IC50 (MG-63): 5.7 nM | IC50 (HGC-27): 0.76 nM
